{
  "source": "patent US20130280252A1",
  "about": "“METHOD FOR SELECTING PATIENT TO BE GIVEN DRUG FOR TREATING SEPTICEMIA” (MOCHIDA PHARMACEUTICAL CO., LTD., priority 2011, published 2013)",
  "molecules": {"B1": {"name": "F1024S-D2(3): modified form of an anti-CD14 antibody in which the domain 2 of urinary trypsin inhibitor (UTI) is bound to the anti-CD14 antibody; fusion protein (antibody)", "heavy": "QIQLVQSGPELKKPGESVKISCKASGYTFTDYAMNWVKQAPGNGLKWMGWINTQTGKPTYADDFKQRFVFSLETSASTAYLQINNLNIEDTATYFCTRSTFYYSSYIYGWYFDFWGPGTMVTVSSASTKGPSVFPLAPCSRSTSESTAALGCLVKDYFPEPVTVSWNSGALTSGVHTFPAVLQSSGLYSLSSVVTVPSSSLGTKTYTCNVDHKPSNTKVDKRVESKYGPPGPSGPAPEFLGGPSVFLFPPKPKDTLMISRTPEVTCVVVDVSQEDPEVQFNWYVDGVEVHNAKTKPREEQFNSTYRVVSVLTVLHQDWLNGKEYKCKVSNKGLPSSIEKTISKAKGQPREPQVYTLPPSQEEMTKNQVSLTCLVKGFYPSDIAVEWESNGQPENNYKTTPPVLDSDGSFFLYSRLTVDKSRWQEGNVFSCSVMHEALHNHYTQKSLSLSLGKGSTVAACNLPIVSGPCRAFIKLWAFDAVKGKCVLFPYGGCQGNGNKFDSEKECREYCGVPGDGDEELLRFSN", "light": "DIVMTQSPTSISISVGERVTMNCKASQNVGSNVDWYQQKTGQSPKLLIYKASNRYTGVPDRFTGSGSGTDFTFTISNMQAVDLAVYYCMQSNTNPPWTFGGGTKLELKRTVAAPSVFIFPPSDEQLKSGTASVVCLLNNFYPREAKVQWKVDNALQSGNSQESVTEQDSKDSTYSLSSTLTLSKADYEKHKVYACEVTHQGLSSPVTKSFNRGEC"}},
  "key": {"[1]": {"system": "rabbit CLP model", "test": "Rabbit CLP model with E5564 (Example 3-1)", "format": "in vivo", "conditions": "3 mg/kg to 10 mg/kg; 1 and 5 hours or 2 and 6 hours after surgery", "description": "A rabbit CLP model is prepared as in Example 1. The E5564 administration timing is set to 1 hour and 5 hours after surgery or 2 hours and 6 hours after surgery and, as in Example 1, the sCD14-ST concentration in the blood at the time the therapeutic agent is administered is later checked with reference to the blood sCD14-ST concentration transition data. The dosage of E5564 is 3 mg/kg to 10 mg/kg. The body temperature and the leukocyte count of the rabbits are measured with time and used as indexes of the physiological conditions."}, "[2]": {"system": "severe septic patients", "test": "Human clinical test of E5564 in severe septic patients", "format": "in vivo", "conditions": "patients meeting at least three SIRS criteria and sCD14-ST equal to or greater than cut-off", "description": "(§1) According to one example of the patient selection standards, E5564 is administered to a patient who meets at least three items of the SIRS diagnostic criteria to [4] and whose sCD14-ST concentration is equal to or greater than the cut-off value. Addition of the sCD14-ST concentration to the indexes used in setting the patient selection standards enables establishment of the patient selection standards that suit the action mechanism of E5564 and thus permits further improvement in E5564 efficacy than when the patient selection standards are set using only the physiological conditions as indexes."}, "[3]": {"system": "severe septic patients", "conditions": "high-dosage group; mortality risk 20% to 80% by APACHE II Score; cited from earlier work"}, "[4]": {"system": "severe septic patients", "test": "Human clinical test of Resatorvid in severe septic patients", "format": "in vivo", "conditions": "patients meeting at least three SIRS criteria and sCD14-ST equal to or greater than cut-off", "description": "The specific standards used for selection of patients are as follows: Severe sepsis meets at least three items of the SIRS diagnostic criteria to [4], and the patient has or is suspected to have an infection requiring treatment with antibiotics. Septic shock needs a vasopressor to maintain a systolic blood pressure of at least 90 mmHg even under an appropriate body fluid management.\nas §1, with “Resatorvid” for “E5564”, “enables” for “permits”"}, "[5]": {"system": "severe septic patients", "conditions": "severe sepsis with shock or respiratory failure, cited from earlier work"}, "[6]": {"system": "rabbit CLP model", "test": "Rabbit CLP model with Resatorvid (Example 2-1)", "format": "in vivo", "conditions": "3 mg/kg to 10 mg/kg; 1 and 5 hours or 2 and 6 hours after surgery", "description": "A rabbit CLP model is prepared as in Example 1. The Resatorvid administration timing is set to 1 hour and 5 hours after surgery or 2 hours and 6 hours after surgery and, as in Example 1, the blood sCD14-ST concentration at the time the therapeutic agent is administered is later checked with reference to the blood sCD14-ST concentration transition data. The dosage of Resatorvid is 3 mg/kg to 10 mg/kg. The body temperature and the leukocyte count of the rabbits are measured with time and used as indexes of the physiological conditions."}, "[7]": {"system": "rabbit CLP model", "test": "Resatorvid-administered rabbit CLP model (Example 4)", "format": "in vivo", "description": "Two Resatorvid-administered groups were set with different administration timings. Ten mg/kg of Resatorvid was intravenously administered at timings of 1 hour and 5 hours after surgery to one group (hereinafter referred to as first-hour administered group) and 3 hours and 7 hours after surgery to the other group (hereinafter referred to as third-hour administered group). A group not to be administered Resatorvid (hereinafter referred to as control group) was administered a 10% aqueous solution of cyclodextrin, a Resatorvid solvent, 1 hour and 5 hours after surgery. Each of the groups consisted of 10 individuals; survival was checked until 48 hours after surgery. The platelet count and the leukocyte count were measured until 24 hours after surgery."}, "[8]": {"system": "human vascular endothelial cell", "conditions": "cited from earlier work"}, "[9]": {"system": "cecal ligation and puncture-induced peritonitis rabbit model (rabbit CLP model)", "test": "Rabbit CLP sepsis model, F1024S-D2(3) administered (Example 1)", "format": "in vivo", "conditions": "for Survival time: 10 mg/kg intravenously two hours after surgery", "description": "A cecal ligation and puncture-induced peritonitis rabbit model (rabbit CLP model; CLP for cecal ligation and puncture) was used as the sepsis model to verify the improvement in efficacy of the therapeutic agent for sepsis when a patient to be administered the therapeutic agent for sepsis (F1024S-D2(3)) was selected using the sCD14-ST concentration as index. The rabbit CLP model was prepared using male rabbits, New Zealand white, each weighing 1.5 kg to 1.99 kg on arrival (Kitayama Labes Co., Ltd.), which had their cecum punctured under anesthesia at two places to make holes each measuring 2 cm to release the cecal contents into the peritoneal cavity according to the method described by Keith A et al (Journal of Surgical Research, Vol. 29, 189 (1980)). In order to stabilize the postsurgical state, all the operated individuals were intravenously administered 60 mg/kg of Shiomarin (Latamoxef Sodium for administration by injection, Shionogi & Co., Ltd.) two hours after surgery.\nBlood was sampled at intervals before and after surgery to measure the sCD14-ST concentrations in the blood. The sCD14-ST concentrations in the blood were measured by the method described in Example 3 in WO2009/142303. In this model, the pathology progresses within several hours, resulting in death within 7 to 8 hours after surgery in the earliest cases. Because the measured values of the sCD14-ST concentration in the blood can only be known five to six hours after blood sampling, administering the therapeutic agent only after checking the results is belated. Therefore, the administration timing of the therapeutic agent was set to two hours after surgery, and the blood sCD14-ST concentration at the time when the therapeutic agent was administered was later checked with reference to blood sCD14-ST concentration transition data. Using the respective sCD14-ST concentrations in the blood before surgery of the individuals as normal values, twice the normal values were set as the respective cut-off values. Thus, the survival rates of the cases where the sCD14-ST concentrations in the blood were at least twice the normal values at the time of administration of the therapeutic agent were compared with that of the control cases (see Table 1). The therapeutic agent-administered cases were intravenously administered 10 mg/kg of F1024S-D2(3). The control cases were intravenously administered 10 mg/kg of human immunoglobulin (hIg) in lieu of F1024S-D2(3).\nThe transition of the sCD14-ST concentration in the blood reflects the severity of sepsis."}, "[10]": {"system": "LPS-induced sepsis rabbit model", "conditions": "cited from earlier work"}, "[11]": {"system": "cecal ligation and puncture-induced peritonitis rabbit model", "conditions": "CLP-induced peritonitis rabbit model; cited from earlier work"}},
  "note": "Entries after “also recorded” stand apart in the source; their conditions may differ. Counter-ions that a name gives are not always drawn. Like-named read-outs stand apart in the source and are kept apart here.",
  "data": [
    {"molecule": "CCCCCC/C=C\\CCCCCCCCCC(=O)N[C@H]1[C@H](OC[C@H]2O[C@H](OP(=O)(O)O)[C@H](NC(=O)CC(=O)CCCCCCCCCCC)[C@@H](OCCCCCCCCCC)[C@@H]2O)O[C@H](COC)[C@@H](OP(=O)(O)O)[C@@H]1OCC[C@@H](CCCCCCC)OC", "note": "[E5564, α-D-Glucopyranose, 3-O-decyl-2-deoxy-6-O-[2-deoxy-3-O-[(3R)-3-methoxydecyl]-6-O-methyl-2-[[(11Z)-1-oxo-11-octadecenyl]amino]-4-O-phosphono-β-D-glucopyranosyl]-2-[(1,3-dioxotetradecyl)amino]-1-(dihydrogen phosphate), tetrasodium salt]", "values": [
      {"measurement": "Efficacy when sCD14-ST concentration is used as index", "setting": "[1]", "value": "reveals improvement in the efficacy"},
      {"measurement": "Efficacy when patient selection standards use sCD14-ST concentration as index", "setting": "[2]", "value": "improvement in E5564 efficacy can be observed"},
      {"measurement": "Mortality rate", "setting": "[3]", "value": "a tendency to reduce the mortality rate was observed in a high-dosage group, but it was of no statistic significance"}
    ]},
    {"molecule": "CCOC(=O)C1=CCCC[C@H]1S(=O)(=O)Nc1ccc(F)cc1Cl", "note": "[Resatorvid, ethyl (6R)-6-[N-(2-chloro-4-fluorophenyl)sulfonyl]cyclohex-1-ene-1-carboxylate]", "values": [
      {"measurement": "Efficacy when patient selection standards use sCD14-ST concentration as index", "setting": "[4]", "value": "improvement in Resatorvid efficacy can be observed"},
      {"measurement": "Mortality rate", "setting": "[5]; high-dosage group", "value": "a tendency to reduce the mortality rate was observed among the high-dosage group, it was of no statistic significance; also recorded: a tendency to reduce the mortality rate was observed in the high-dosage group, it was of no statistic significance"},
      {"measurement": "Serum IL-6 level", "setting": "[5]", "value": "failed to suppress the serum IL-6 level"},
      {"measurement": "Efficacy when sCD14-ST concentration is used as index", "setting": "[6]", "value": "reveals improvement in the efficacy"},
      {"measurement": "Recovery in leukocyte count, first-hour versus third-hour administered group", "setting": "[7]; 10 mg/kg i.v.", "value": "observed more significantly in the first-hour administered group than in the third-hour administered group"},
      {"measurement": "Survival rate versus control group", "setting": "[7]; 10 mg/kg i.v. at 1 and 5 hours or 3 and 7 hours after surgery, checked until 48 hours", "value": "survival rates improved in the first-hour Resatorvid-administered group and the third-hour Resatorvid-administered group over the control group"},
      {"measurement": "Platelet count", "setting": "[7]; 12th hour after surgery, 10 mg/kg i.v.", "value": "showed a tendency to recover at the 12th hour after surgery, but failed to recover"},
      {"measurement": "Leukocyte count versus control group", "setting": "[7]; 24th hour after surgery, 10 mg/kg i.v.", "value": "showed recovery in leukocyte count as compared with the control group"},
      {"measurement": "Survival rate, first-hour versus third-hour administered group", "setting": "[7]; first 24 hours, 10 mg/kg i.v.", "value": "the first-hour administered group showed a higher survival rate than the third-hour administered group"}
    ]},
    {"molecule": "B1", "values": [
      {"measurement": "Production of IL-6 induced by LPS stimulation", "setting": "[8]", "value": "suppress production of IL-6"},
      {"measurement": "Survival time", "setting": "[9]; Severity Especially high", "value": 7, "unit": "h"},
      {"measurement": "Survival time", "setting": "[9]; Severity High", "value": 23, "unit": "h"},
      {"measurement": "Survival time", "setting": "[9]; Severity Medium", "value": 47, "unit": "h"},
      {"measurement": "Effect on survival time versus control cases", "setting": "[9]; especially high severity cases", "value": "no difference in survival time was observed"},
      {"measurement": "Effect on survival time versus control cases", "setting": "[9]; medium to high severity cases, administered when blood sCD14-ST at least twice the normal value", "value": "an effect of prolonging the survival time was observed"},
      {"measurement": "Survival rate", "setting": "[10]", "value": "improve the survival rate of an LPS-induced sepsis rabbit model"},
      {"measurement": "Survival rate", "setting": "[11]", "value": "improve the survival rate of a cecal ligation and puncture-induced peritonitis rabbit model"}
    ]}
  ]
}
